{
  "source": "patent US20020137929A1",
  "about": "“1 - (3-heterocyclylphenyl) isothiourea, -isourea, -guanidine and -amidine herbicidal agents” (Intellectual Property Department, BASF Aktiengesellschaft, priority 1998, published 2002)",
  "key": {"ECHCG (Barnyardgrass) [1]": {"test_system": "ECHCG (Barnyardgrass)", "experiment": "Preemergence herbicidal evaluation", "type": "in vivo, Echinochloa crus-galli", "settings": "rated 4-5 weeks after treatment", "in_short": "(§1)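 Test compound, dissolved in aqueous acetone, was sprayed over planted soil cups at an equivalent of about 0.0156 to 0.500 kg/ha; seeds had been mixed with potting soil. Greenhouse growth followed, with visual 0-9 scoring of injury at four to five weeks.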"}, "ABUTH (Velvetleaf) [2]": {"test_system": "ABUTH (Velvetleaf)", "experiment": "Postemergence herbicidal evaluation", "type": "in vivo, Abutilon theophrasti", "in_short": "(§2)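 Seedlings grown about two weeks were sprayed at 40 psi with compound dispersed in 50/50 acetone/water plus 0.5% TWEEN 20, at about 0.0156 to 0.500 kg/ha. Plants were kept in the greenhouse and scored 4–5 weeks later on a 0–9 visual scale against untreated controls.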"}, "ZEAMX (Corn, Field) [3]": {"test_system": "ZEAMX (Corn, Field)", "experiment": "Preemergence herbicidal evaluation", "type": "in vivo, Zea mays", "settings": "rated 4-5 weeks after treatment", "in_short": "as §1"}, "ABUTH (Velvetleaf) [4]": {"test_system": "ABUTH (Velvetleaf)", "experiment": "Preemergence herbicidal evaluation", "type": "in vivo, Abutilon theophrasti", "settings": "rated 4-5 weeks after treatment", "in_short": "as §1"}, "[5]": {"test_system": "CHEAL (Lambsquarters, Common)", "experiment": "Preemergence herbicidal evaluation", "type": "in vivo, Chenopodium album", "settings": "rated 4-5 weeks after treatment", "in_short": "as §1"}, "ORYSAT (Rice, Tebonnet)": {"test_system": "ORYSAT (Rice, Tebonnet)", "experiment": "Postemergence herbicidal evaluation", "type": "in vivo, Oryza sativa, (L.) Tebonnet", "in_short": "as §2"}, "[6]": {"test_system": "GLXMAW (Soybean, Williams)", "experiment": "Preemergence herbicidal evaluation", "type": "in vivo, Glycine max, (L.) Merr. cv Williams", "settings": "rated 4-5 weeks after treatment", "in_short": "as §1"}, "[7]": {"test_system": "TRZAWR (Wheat, Winter, cv Riband)", "experiment": "Preemergence herbicidal evaluation", "type": "in vivo, Triticum aestivum", "settings": "rated 4-5 weeks after treatment", "in_short": "as §1"}, "ECHCG (Barnyardgrass) [8]": {"test_system": "ECHCG (Barnyardgrass)", "experiment": "Postemergence herbicidal evaluation", "type": "in vivo, Echinochloa crus-galli", "in_short": "as §2"}, "SETVI (Foxtail, Green)": {"test_system": "SETVI (Foxtail, Green)", "experiment": "Postemergence herbicidal evaluation", "type": "in vivo, Setaria viridis", "in_short": "as §2"}, "[9]": {"test_system": "IPOHE (Morningglory, Ivyleaf)", "experiment": "Preemergence herbicidal evaluation", "type": "in vivo, Ipomoea hederacea", "settings": "rated 4-5 weeks after treatment", "in_short": "as §1"}, "CASOB (Sicklepod)": {"test_system": "CASOB (Sicklepod)", "experiment": "Preemergence herbicidal evaluation", "type": "in vivo, Cassia obtusifolia", "settings": "rated 4-5 weeks after treatment", "in_short": "as §1"}, "ZEAMX (Corn, Field) [10]": {"test_system": "ZEAMX (Corn, Field)", "experiment": "Postemergence herbicidal evaluation", "type": "in vivo, Zea mays", "in_short": "as §2"}, "CYPSE (Flatsedge)": {"test_system": "CYPSE (Flatsedge)", "experiment": "Postemergence weed control under flooded paddy conditions", "type": "in vivo, Cyperus serotinus", "settings": "rate 0.2500 kg/ha, postemergence weeds, 3-4 weeks after treatment", "in_short": "(§3)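 Flood-water application, about 0.0313–0.500 kg/ha a.i. in aqueous/acetone 50/50 v/v; water depth 1.5–3 cm throughout. Weeds 3–5 cm, rice 1.5–2.5 leaf. Greenhouse; 0–9 visual rating vs control at 3–4 wk.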"}, "[11]": {"test_system": "CHEAL (Lambsquarters, Common)", "experiment": "Postemergence herbicidal evaluation", "type": "in vivo, Chenopodium album", "in_short": "as §2"}, "[12]": {"test_system": "IPOHE (Morningglory, Ivyleaf)", "experiment": "Postemergence herbicidal evaluation", "type": "in vivo, Ipomoea hederacea", "in_short": "as §2"}, "CYPIR (Rice Flatsedge)": {"test_system": "CYPIR (Rice Flatsedge)", "experiment": "Postemergence weed control under flooded paddy conditions", "type": "in vivo, Cyperus iria", "settings": "rate 0.2500 kg/ha, postemergence weeds, 3-4 weeks after treatment", "in_short": "as §3"}},
  "data": [
    {"smiles": "Cn1c(C(F)(F)F)cc(=O)n(-c2cc(/N=C3/SCC(=O)N3CC(=O)O)c(Cl)cc2F)c1=O", "note": "[Compound 52, 2-{{2-Chloro-5-[3,6-dihydro-3-methyl-2,6-dioxo-4-(trifluoromethyl)-1(2H)-pyrimidinyl]-4-fluoro-phenyl}imino}-4-oxo-3-thiazolidineacetic acid]", "values": [
      {"measurement": "Preemergence herbicidal rating ECHCG", "setting": "ECHCG (Barnyardgrass) [1]; rate 0.0313 kg/ha", "result": 0.0},
      {"measurement": "Preemergence herbicidal rating ECHCG", "setting": "ECHCG (Barnyardgrass) [1]; rate 0.0625 kg/ha", "result": 0.0},
      {"measurement": "Preemergence herbicidal rating ECHCG", "setting": "ECHCG (Barnyardgrass) [1]; rate 0.1250 kg/ha", "result": 0.0},
      {"measurement": "Preemergence herbicidal rating ECHCG", "setting": "ECHCG (Barnyardgrass) [1]; rate 0.2500 kg/ha", "result": 1.0},
      {"measurement": "Postemergence herbicidal rating ABUTH", "setting": "ABUTH (Velvetleaf) [2]; Rate 0.0158 kg/ha", "result": 1.0},
      {"measurement": "Postemergence herbicidal rating ABUTH", "setting": "ABUTH (Velvetleaf) [2]; Rate 0.0315 kg/ha", "result": 9.0},
      {"measurement": "Postemergence herbicidal rating ABUTH", "setting": "ABUTH (Velvetleaf) [2]; Rate 0.0630 kg/ha", "result": 9.0},
      {"measurement": "Preemergence herbicidal rating ZEAMX", "setting": "ZEAMX (Corn, Field) [3]; rate 0.0313 kg/ha", "result": 0.0},
      {"measurement": "Preemergence herbicidal rating ZEAMX", "setting": "ZEAMX (Corn, Field) [3]; rate 0.0625 kg/ha", "result": 0.0},
      {"measurement": "Preemergence herbicidal rating ZEAMX", "setting": "ZEAMX (Corn, Field) [3]; rate 0.1250 kg/ha", "result": 1.0},
      {"measurement": "Preemergence herbicidal rating ZEAMX", "setting": "ZEAMX (Corn, Field) [3]; rate 0.2500 kg/ha", "result": 3.0},
      {"measurement": "Preemergence herbicidal rating ABUTH", "setting": "ABUTH (Velvetleaf) [4]; rate 0.0313 kg/ha", "result": 9.0},
      {"measurement": "Preemergence herbicidal rating ABUTH", "setting": "ABUTH (Velvetleaf) [4]; rate 0.0625 kg/ha", "result": 9.0},
      {"measurement": "Preemergence herbicidal rating ABUTH", "setting": "ABUTH (Velvetleaf) [4]; rate 0.1250 kg/ha", "result": 9.0},
      {"measurement": "Preemergence herbicidal rating ABUTH", "setting": "ABUTH (Velvetleaf) [4]; rate 0.2500 kg/ha", "result": 9.0},
      {"measurement": "Preemergence herbicidal rating CHEAL", "setting": "[5]; rate 0.0313 kg/ha", "result": 0.0},
      {"measurement": "Preemergence herbicidal rating CHEAL", "setting": "[5]; rate 0.0625 kg/ha", "result": 6.0},
      {"measurement": "Preemergence herbicidal rating CHEAL", "setting": "[5]; rate 0.1250 kg/ha", "result": 9.0},
      {"measurement": "Preemergence herbicidal rating CHEAL", "setting": "[5]; rate 0.2500 kg/ha", "result": 9.0},
      {"measurement": "Postemergence herbicidal rating ORYSAT", "setting": "ORYSAT (Rice, Tebonnet); Rate 0.0158 kg/ha", "result": 1.0},
      {"measurement": "Postemergence herbicidal rating ORYSAT", "setting": "ORYSAT (Rice, Tebonnet); Rate 0.0315 kg/ha", "result": 1.0},
      {"measurement": "Postemergence herbicidal rating ORYSAT", "setting": "ORYSAT (Rice, Tebonnet); Rate 0.0630 kg/ha", "result": 2.0},
      {"measurement": "Preemergence herbicidal rating GLXMAW", "setting": "[6]; rate 0.0313 kg/ha", "result": 0.0},
      {"measurement": "Preemergence herbicidal rating GLXMAW", "setting": "[6]; rate 0.0625 kg/ha", "result": 1.0},
      {"measurement": "Preemergence herbicidal rating GLXMAW", "setting": "[6]; rate 0.1250 kg/ha", "result": 1.0},
      {"measurement": "Preemergence herbicidal rating GLXMAW", "setting": "[6]; rate 0.2500 kg/ha", "result": 2.0},
      {"measurement": "Preemergence herbicidal rating TRZAWR", "setting": "[7]; rate 0.0313 kg/ha", "result": 0.0},
      {"measurement": "Preemergence herbicidal rating TRZAWR", "setting": "[7]; rate 0.0625 kg/ha", "result": 0.0},
      {"measurement": "Preemergence herbicidal rating TRZAWR", "setting": "[7]; rate 0.1250 kg/ha", "result": 2.0},
      {"measurement": "Preemergence herbicidal rating TRZAWR", "setting": "[7]; rate 0.2500 kg/ha", "result": 5.0},
      {"measurement": "Postemergence herbicidal rating ECHCG", "setting": "ECHCG (Barnyardgrass) [8]; Rate 0.0158 kg/ha", "result": 1.0},
      {"measurement": "Postemergence herbicidal rating ECHCG", "setting": "ECHCG (Barnyardgrass) [8]; Rate 0.0315 kg/ha", "result": 1.0},
      {"measurement": "Postemergence herbicidal rating ECHCG", "setting": "ECHCG (Barnyardgrass) [8]; Rate 0.0630 kg/ha", "result": 4.0},
      {"measurement": "Postemergence herbicidal rating SETVI", "setting": "SETVI (Foxtail, Green); Rate 0.0158 kg/ha", "result": 1.0},
      {"measurement": "Postemergence herbicidal rating SETVI", "setting": "SETVI (Foxtail, Green); Rate 0.0315 kg/ha", "result": 3.0},
      {"measurement": "Postemergence herbicidal rating SETVI", "setting": "SETVI (Foxtail, Green); Rate 0.0630 kg/ha", "result": 7.0},
      {"measurement": "Preemergence herbicidal rating IPOHE", "setting": "[9]; rate 0.0313 kg/ha", "result": 0.0},
      {"measurement": "Preemergence herbicidal rating IPOHE", "setting": "[9]; rate 0.0625 kg/ha", "result": 1.0},
      {"measurement": "Preemergence herbicidal rating IPOHE", "setting": "[9]; rate 0.1250 kg/ha", "result": 2.0},
      {"measurement": "Preemergence herbicidal rating IPOHE", "setting": "[9]; rate 0.2500 kg/ha", "result": 9.0},
      {"measurement": "Preemergence herbicidal rating CASOB", "setting": "CASOB (Sicklepod); rate 0.0313 kg/ha", "result": 0.0},
      {"measurement": "Preemergence herbicidal rating CASOB", "setting": "CASOB (Sicklepod); rate 0.0625 kg/ha", "result": 0.0},
      {"measurement": "Preemergence herbicidal rating CASOB", "setting": "CASOB (Sicklepod); rate 0.1250 kg/ha", "result": 1.0},
      {"measurement": "Preemergence herbicidal rating CASOB", "setting": "CASOB (Sicklepod); rate 0.2500 kg/ha", "result": 1.0},
      {"measurement": "Postemergence herbicidal rating ZEAMX", "setting": "ZEAMX (Corn, Field) [10]; Rate 0.0158 kg/ha", "result": 5.0},
      {"measurement": "Postemergence herbicidal rating ZEAMX", "setting": "ZEAMX (Corn, Field) [10]; Rate 0.0315 kg/ha", "result": 7.5},
      {"measurement": "Postemergence herbicidal rating ZEAMX", "setting": "ZEAMX (Corn, Field) [10]; Rate 0.0630 kg/ha", "result": 7.0},
      {"measurement": "Herbicidal rating CYPSE", "setting": "CYPSE (Flatsedge)", "result": 0.0},
      {"measurement": "Postemergence herbicidal rating CHEAL", "setting": "[11]; Rate 0.0158 kg/ha", "result": 4.0},
      {"measurement": "Postemergence herbicidal rating CHEAL", "setting": "[11]; Rate 0.0315 kg/ha", "result": 4.0},
      {"measurement": "Postemergence herbicidal rating CHEAL", "setting": "[11]; Rate 0.0630 kg/ha", "result": 6.0},
      {"measurement": "Postemergence herbicidal rating IPOHE", "setting": "[12]; Rate 0.0158 kg/ha", "result": 4.0},
      {"measurement": "Postemergence herbicidal rating IPOHE", "setting": "[12]; Rate 0.0315 kg/ha", "result": 9.0},
      {"measurement": "Postemergence herbicidal rating IPOHE", "setting": "[12]; Rate 0.0630 kg/ha", "result": 9.0},
      {"measurement": "Herbicidal rating CYPIR", "setting": "CYPIR (Rice Flatsedge)", "result": 2.0}
    ]}
  ]
}
